Data: paper PMC9598311, “Identification of a Small Molecule That Inhibits the Interaction of LPS Transporters LptA and LptC” (Antibiotics, 2022)
Each block holds one molecule with its values, some of them ahead of it.

Legend:
LptC = target: T1, LptC (Escherichia coli, UniProt P0ADV9); test: SPR, LptC immobilized on carboxymethyl dextran chip; type: binding
T1 construct: synthetic gene in pET-28a, N-terminal 6-His tag, expressed in E. coli BL21(DE3), His-Trap purified
T1 sequence (P0ADV9 1-191): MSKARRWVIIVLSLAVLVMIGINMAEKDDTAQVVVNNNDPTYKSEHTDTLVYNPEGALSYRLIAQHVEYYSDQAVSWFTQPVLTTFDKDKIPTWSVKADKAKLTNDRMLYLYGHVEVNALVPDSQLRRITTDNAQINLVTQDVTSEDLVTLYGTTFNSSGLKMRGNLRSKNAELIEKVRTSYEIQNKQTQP
Source text: SPR, LptC immobilized on carboxymethyl dextran chip on LptC

LptA = target: T2, LptA (Escherichia coli, UniProt P0ADV1); test: SPR, LptA immobilized on carboxymethyl dextran chip; type: binding
T2 construct: synthetic gene in pET-28a, N-terminal 6-His tag, expressed in E. coli BL21(DE3), His-Trap purified
T2 sequence (P0ADV1 28-185): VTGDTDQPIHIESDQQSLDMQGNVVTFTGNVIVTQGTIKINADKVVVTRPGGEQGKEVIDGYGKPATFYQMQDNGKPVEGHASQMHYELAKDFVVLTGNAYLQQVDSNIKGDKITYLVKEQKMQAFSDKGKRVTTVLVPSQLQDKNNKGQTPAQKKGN
Source text: SPR, LptA immobilized on carboxymethyl dextran chip on LptA

LptA/LptC = test system: T3, LptA/LptC; test: SPR, LptA preincubated with compound passed over immobilized LptC; type: binding, Escherichia coli; conditions: inhibition of LptA/LptC protein-protein interaction; LptA 15 ug/mL, compound 0-4 ug/mL, PBST
T3 construct: complex formed on chip: LptC immobilized, LptA in solution; both N-terminal 6-His tagged, expressed in E. coli BL21(DE3)

[1] = target: T4, LptC protein with a 6-His tag at the N-terminal (Escherichia coli) (UniProt P0ADV9); test: SPR; Reichert SPR system; LptC immobilised on a mixed self-assembled monolayer (SAM) sensor chip; LptA 0.164 µM to 2.624 µM in PBST (0.01 M Na Phosphate, 0.15 M NaCl, 0.05% Tween 20) passed over; regeneration 1 M NaCl 90 s; TraceDrawer 1.7.1
T4 sequence (P0ADV9 whole entry, looked up): T1 sequence (P0ADV9 1-191)

- Kd (LptC): 32.6 µM
- Kd (LptA): 4.67 µM
Molecule: CN(C)c1ccc(/C=C/c2cc(C(C)(C)C)[o+]c(C(C)(C)C)c2)cc1 [IMB-0042]
- SPR, LptA preincubated with compound passed over immobilized LptC (LptA/LptC): Compound IMB-0042 blocked LptA/LptC interaction.

- Kd [1]: 2.28 µM
- koff [1]: 0.385 s⁻¹
- kon [1]: 169000 M⁻¹ s⁻¹
B1: LptA protein with a 6-His tag at the N-terminal (natural protein)
chain: T2 sequence (P0ADV1 28-185)
